# Experimental data reported in patent publication US20250243219A1, “MACROCYCLIC COMPOUNDS AND USES THEREOF” (Cypralis Limited, priority 2022, published 2025).
# Read-outs that look alike come from different tables or passages of the source.
# Key:
# cyclophilin A = cyclophilin A (Homo sapiens (Human), UniProt P62937); test: Functional peptidyl prolyl isomerase (PPIase) spectrophotometric assay, cyclophilin A; format: biochemical; details: first value of CypA/D cell
# Summary of the method: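 Cuvette-based UV/Vis assay of PPIase-catalysed cis-to-trans isomerisation of a peptide substrate. First-order rate constants fitted to absorbance, background rate subtracted. Ki derived from rate constant versus inhibitor concentration, typically 6-point curves in duplicate.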
# pancreatic acinar cells = test: Protection of pancreatic acinar cells against TLCS toxicity (propidium iodide uptake, FIG. 1); format: cell-based; details: propidium iodide uptake as measure of necrotic cells
# Excerpt: FIG. 1 propidium iodide (PI) up-take as a measure of the number of dead pancreatic acinar cells (through necrosis) as a percentage against a number of treatments with Compound (2) and cyclosporin A and controls in an in-vitro model based on pancreatic acinar cells against the toxicity of the bile acid taurolithocholic acid-3-sulphate (TLCS);
# WO 2021/115299 (Zuo) discloses compounds that protect against acute kidney injury caused by many different causes. The same compounds are disclosed in U.S. Pat. No. 6,583,265 (C-Chem AG) as cyclophilin inhibitors. There is no enzyme inhibiting, receptor binding or ion channel activity known for these compounds other than inhibition of cyclophilins. It can therefore be concluded that the compounds of the present invention, which are potent cyclophilin inhibitors but have no activity on other enzymes or receptors, have the same spectrum of properties.
# FIG. 1 illustrates two sets of results.
# [1] = tested on: permeabilised HepG2 cells; test: Calcium retention capacity (CRC) assay in permeabilised HepG2 cells (MPTP opening); format: cell-based, human; parameters: CRC [10 μM]: unit not given here; details: compound at 10 μM
# Summary of the method: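 Digitonin-permeabilised HepG2 cells received trains of calcium pulses (typically 5 μM) monitored with Calcium Green-5N until buffering failed, marking permeability transition. Runs with and without compound; calcium retained at 10 μM compound expressed as ratio versus cyclosporin A positive control.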
# [2] = tested on: kainic acid treated NMRI mice; test: Kainic acid model of epilepsy; format: in vivo, Male NMRI mice; details: 150 mg/kg for 3 consecutive days, kainic acid 45 mg/kg s.c., n=21
# Protocol: Male NMRI mice (n=21) were given 150 mg/kg of Compound (2) (60% PEG400/water solution) for 3 consecutive days. 2 hours after the last dose the animals were given subcutaneously 45 mg/kg of kainic acid. Behaviour was monitored for 3 hours. On day 7 after receiving kainic acid the animals were sacrificed and brain analysed by immunohistochemistry for markers of neurodegeneration.
# EAE C57BL/6J mice = test: Experimental autoimmune encephalomyelitis (EAE) mouse model of multiple sclerosis; format: in vivo; details: 75 mg/kg orally BID for 14 days
# Protocol: C57BL/6 mice are the most commonly used strain. For the induction of EAE, typically, the immunogenic epitope MOG35-55 of myelin oligodendrocyte glycoprotein is suspended in complete Freund's adjuvant (CFA) prior to immunization. Thereafter, pertussis toxin (PT) is applied on the day of immunization and a couple of days later to facilitate the induction of EAE. Animals are assessed by body weight change, EAE scoring and histopathological examination for both inflammation and demyelination.
# Compound (2) was dissolved at a dose level of 75 mg/kg with a final concentration of 20 mg/ml (in 66.6% PEG/water), and administered orally BID (i.e. every 12 hours) to C57BL/6J mice at a dose volume of 3.75 ml/kg. Treatment was started concomitant with the first signs of disease (around days 10-12) and continued for 14 days. The animals were evaluated for general clinical signs, body weight change and neurological score. After termination of treatment the animals were sacrificed, brains and spinal cords were collected, fixed in formalin 4% and processed for staining with haematoxylin and eosin.
# [3] = Blood-brain barrier penetration, intravenous dosing; format: in vivo, rodents (mice or rats); details: 3 mg/kg intravenous
# Protocol: Test compounds were administered to rodents (mice or rats) either orally, subcutaneously or intravenously. To determine blood or plasma concentrations blood samples were taken at different time points and analysed for the concentration of test compound by LC/MS. Brain concentrations were measured by sacrificing animals and LC/MS analysis of brain homogenate.
# The results for Compounds (2), (19), (6) and (27) are summarised in Table 6 showing concentrations of the Compounds in blood plasma and the brain.
# [4] = vs vehicle group, not statistically significant
# Chain of cyclophilin A (P62937 whole entry, species assumed): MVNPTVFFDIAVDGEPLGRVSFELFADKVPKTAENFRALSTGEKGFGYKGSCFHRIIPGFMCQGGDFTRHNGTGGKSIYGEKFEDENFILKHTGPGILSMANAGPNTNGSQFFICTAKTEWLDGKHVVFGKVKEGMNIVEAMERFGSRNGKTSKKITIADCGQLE
structure (smiles),measurement,setting,value
CC(C)[C@@H]1OC(=O)C(C)(C)/C=C/c2ccc3ccc(nc3c2)N(C)NC(=O)[C@@H]2CCCN(N2)C(=O)[C@H](C)NC1=O [Compound (2)],Ki,cyclophilin A,5 nM
same,Protection of pancreatic acinar cells against toxicity of TLCS,pancreatic acinar cells,protect pancreatic acinar cells against the toxicity
same,CRC [10 μM],[1]; digitonin permeabilised HepG2 cells,26
same,CRC [10 μM] (ratio vs CsA),"[1]; normalised to cyclosporin A, value in brackets",0.9875
same,Number of animals with visible signs of neurodegeneration,[2]; control group 5 animals,2 animals
same,Percent of animals with visible signs of neurodegeneration,[2]; control group 24%,9%
same,Extent of spinal cord damage,"EAE C57BL/6J mice; vs untreated control, FIG. 4",significant reduction
same,Body weight gain,EAE C57BL/6J mice; [4],better body weight gain
same,Clinical score,EAE C57BL/6J mice; [4],reduction in the clinical score
same,Blood-brain barrier passage,[3],passed the blood-brain barrier
same,concentration at 30 min,"[3]; brain, read-out: Brain concentration",170 ng/mL
same,concentration at 30 min,"[3]; plasma, read-out: Plasma concentration",222 ng/mL
